Where “and” joins values, the source holds several entries; their conditions need not be identical. Equal values may be shown once.
Assay: xn = mol fraction of the nth substance listed

CCCCCCCCCCCCCCCCCCCC + CCCCCCCCCC
viscosity [mPa·s], 101.3 kPa
Conditions	x2 = 0.201	x2 = 0.4	x2 = 0.5	x2 = 0.6	x2 = 0.8
293.15 K	–	–	–	–	1.56
303.2 K	–	–	2.4	2.01	1.31
313.2 K	3.14	2.38	1.95	1.68	1.12

CCCN + CCC(C)(C)O
Conditions	viscosity [mPa·s]
308.15 K, 101 kPa, x2 = 0.9498	2.305

CC(C)c1ccccc1 + CCO
viscosity [mPa·s], 101 kPa
Conditions	x1 = 0.0663	x1 = 0.1236	x1 = 0.2015	x1 = 0.2971	x1 = 0.4052	x1 = 0.5656	x1 = 0.7293
298.15 K	1.036	0.982	0.926	0.878	0.836	0.796	0.764
308.15 K	0.897	0.86	0.81	0.753	0.7	0.653	0.64

[K+].[OH-] + O
323.15 K, 101 kPa
Conditions	viscosity [mPa·s]
x1 = 0.009	0.586
x1 = 0.026	0.67
x1 = 0.059	0.853
x1 = 0.08	1.01
x1 = 0.1	1.26
x1 = 0.2	1.75
x1 = 0.21	2.84
x1 = 0.3	4.62

CCCN + C1CCCCC1
viscosity, 101 kPa
Conditions	x1 = 0.00761	x1 = 0.01688	x1 = 0.02821	x1 = 0.03652	x1 = 0.04831	x1 = 0.05697	x1 = 0.06516	x1 = 0.07467	x1 = 0.08588
303.15 K	0.8113 mPa·s	0.8039 mPa·s	0.7953 mPa·s	0.789 mPa·s	0.7803 mPa·s	0.7736 mPa·s	0.7669 mPa·s	0.7583 mPa·s	0.7506 mPa·s
313.15 K	0.7093 mPa·s and 0.6999 mPa·s	0.6903 mPa·s	0.6849 mPa·s	0.6772 mPa·s	0.67 mPa·s	0.6638 mPa·s	0.6564 mPa·s	0.6488 mPa·s	–

CCCCCCCCCCCCCCCCCCCC + CCCCCCCCCCCCCCCC
viscosity [mPa·s], 101.3 kPa
Conditions	x1 = 0.2	x1 = 0.4	x1 = 0.5	x1 = 0.599	x1 = 0.8
293.2 K	3.875	–	–	–	–
303.2 K	3.045	3.481	3.77	4.065	–
313.2 K	2.459	2.785	3.011	3.223	3.602

CCCCOC(C)=O + COCCO
viscosity [mPa·s], 101 kPa
Conditions	x2 = 0.0967	x2 = 0.1995	x2 = 0.2988	x2 = 0.3986	x2 = 0.4983	x2 = 0.6028	x2 = 0.697	x2 = 0.7987	x2 = 0.9012
298.15 K	0.703	0.736	0.787	0.841	0.922	1.01	1.13	1.285	1.48
303.15 K	0.656	0.686	0.731	0.78	0.849	0.928	1.034	1.17	1.34
308.15 K	0.615	0.641	0.68	0.723	0.785	0.855	0.948	1.066	1.217

CCCCOC(C)=O + CCCCO
viscosity [mPa·s], 101 kPa
Conditions	x1 = 0.1	x1 = 0.1944	x1 = 0.2974	x1 = 0.3991	x1 = 0.4988	x1 = 0.6008	x1 = 0.6913	x1 = 0.7961	x1 = 0.8993
298.15 K	2.212	1.921	1.641	1.407	1.212	1.041	0.923	0.813	0.727
303.15 K	1.962	1.713	1.475	1.262	1.091	0.948	0.839	0.755	0.688
308.15 K	1.75	1.532	1.31	1.146	0.993	0.876	0.789	0.703	0.646
313.15 K	1.558	1.365	1.184	1.037	0.908	0.806	0.731	0.662	0.619

Oc1ccccc1Cl + CCC(C)=O
298.15 K, 101 kPa
Conditions	viscosity [mPa·s]
x1 = 0.1005	0.517
x1 = 0.1961	0.7
x1 = 0.3003	0.913
x1 = 0.3994	1.322
x1 = 0.501	1.744
x1 = 0.6001	2.277
x1 = 0.6991	2.736
x1 = 0.8006	3.091
x1 = 0.8991	3.315
